Consider seven molecules from patent US20250289817A1, “SEROTONIN RECEPTOR MODULATORS AND METHODS OF MAKING AND USING THE SAME” (Kuleon LLC, priority 2022, published 2025).

Assay [1] has as its target T1, 5-HT2A (Homo sapiens, UniProt P28223).
T1 construct: expressed in transfected cells; host or cells: HEK293T
The assay is described as follows: Gq activation via Gq/γ1 dissociation BRET, 5-HT2A. The assay is classed as cell-based. The following applies: HEK293T cells; for EC50: Gq dissociation BRET2, 1 hour at 37° C.; for Emax: HEK-293T, Gq dissociation BRET2, normalized to % 5-HT stimulation. The source says:
(§1) To measure 5-HT2 receptor-mediated Gq activation via Gq/y1 dissociation as measured by Bioluminescence Resonance Energy Transfer (BRET) (McCorvy JD, Wacker D, Wang S, Agegnehu B, Liu J, Lansu K, Tribo A R, Olsen R HJ, Che T, Jin J, Roth B L. Structural determinants of 5-HT2B receptor activation and biased agonism. Nat Struct Mo/ Biol. 2018; 25(9): 787-96), HEK293T cells were sub-cultured in Dulbecco's Modified Eagle Medium (DMEM) supplemented with 10% dialyzed fetal bovine serum (FBS) and were co-transfected in a 1:1:1:1 ratio with Rluc8-fused human Gaq (Gaq-Rluc8), a GFP2-fused to the C-terminus of human Gy1(Gy1-GFP2), human G131, and 5-HT2 receptor using TransiT-2020. After at least 18-24 hours, transfected cells were plated in poly-lysine coated 96-well white clear bottom cell culture plates in DMEM containing 1% dialyzed FBS at a density of 25,000-40,000 cells in 200 μL per well and incubated overnight. The following day, medium was decanted, and cells were washed with 60 μL of drug buffer (1×HBSS, 20 mM HEPES, pH 7.4), then 60 μL of drug buffer was added per well. Cells were pre-incubated at in a humidified atmosphere at 37° C. before receiving drug stimulation. Drug stimulation utilized 30 μL addition of drug (3×) diluted in McCorvy buffer (1×HBSS, 20 mM HEPES, pH 7.4, supplemented with 0.3% BSA fatty acid free, 0.03% ascorbic acid) and plates were incubated at for 1 hour at 37° C. Substrate addition occurred 15 minutes before reading and utilized 10 μL of the Rluc substrate coelenterazine 400a for Gq dissociation BRET^2 (Prolume/Nanolight, 5 μM final concentration). Plates were read for luminescence at 400 nm and fluorescent GFP2 emission at 510 nm at 1 second per well using a Mithras LB940 multimode microplate reader (e.g. one provided by Berthold). The BRET ratios of fluorescence/luminescence were calculated per well and were plotted as a function of drug concentration using Graphpad Prism 8 (Graphpad Software Inc., San Diego, CA). Data were normalized to % 5-HT stimulation and analyzed using nonlinear regression “log(agonist) vs. response” to yield Emax and EC50 parameter estimates. Results are shown in Table 8, where A=<10; B=10 to <100; C=100 to 1000 and D=>1000; +++=>70%; ++=50 to 70%; and +=<50%; NC=not calculated. […] Hallucinogenic (“Hall”) or non-hallucinogenic (“N-Hall”) plastogenic effect is predicted for compounds based on the level 5-HT2A agonist efficacy.
For orientation: BRET reads energy transfer from a luciferase to a nearby fluorophore.

The target in another assay is T2, 5-HT2B (Homo sapiens, UniProt P41595).
T2 construct: expressed in transfected cells; host or cells: HEK293T
Description: Gq activation via Gq/γ1 dissociation BRET, 5-HT2B. Format: cell-based. The settings on record: HEK293T cells, AT* = data suggests antagonistic effect at 5-HT2B (footnote); for Emax: HEK-293T, Gq dissociation BRET2, normalized to % 5-HT stimulation.
From the text: as §1

Assay [2] deals with T3, 5-HT2C (Homo sapiens, UniProt P28335).
T3 sequence (P28335 33-458): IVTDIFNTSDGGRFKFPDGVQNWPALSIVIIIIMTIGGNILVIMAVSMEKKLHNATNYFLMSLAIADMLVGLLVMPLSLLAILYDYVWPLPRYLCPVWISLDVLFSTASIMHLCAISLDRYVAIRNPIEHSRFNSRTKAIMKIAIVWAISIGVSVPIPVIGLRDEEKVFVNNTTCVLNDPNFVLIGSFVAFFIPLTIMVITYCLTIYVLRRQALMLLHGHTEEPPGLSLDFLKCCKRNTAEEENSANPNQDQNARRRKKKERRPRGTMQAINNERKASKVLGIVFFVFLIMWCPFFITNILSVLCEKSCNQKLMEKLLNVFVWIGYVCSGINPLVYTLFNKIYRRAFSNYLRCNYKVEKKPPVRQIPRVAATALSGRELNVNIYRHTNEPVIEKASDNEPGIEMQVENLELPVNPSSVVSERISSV
The assay is described as follows: Gq signaling bias for 5-HT2C (Gq-coupled versus B-arrestin signaling). The settings on record: primary signaling for 5-HT2C via Gq-coupled mechanism compared to B-arrestin. Format: cell-based.
From the text: as §1

Assay [3] deals with T1, 5-HT2A. The assay is described as follows: Predicted hallucinogenic or non-hallucinogenic plastogenic effect based on 5-HT2A agonist efficacy. The settings on record: hallucinogenic (Hall) or non-hallucinogenic (N-Hall) plastogenic effect predicted from level of 5-HT2A agonist efficacy.
From the text: as §1

The target of assay [4] is T3, 5-HT2C. The assay is described as follows: Gq activation via Gq/γ1 dissociation BRET, 5-HT2C. The assay is classed as cell-based. On the set-up: expressed in transfected cells; host or cells: HEK293T. The settings on record: for Emax: HEK-293T, read-out: 5-HT2C Emax (%).
From the text: as §1

Setting [5] is: Gq dissociation BRET2, 1 hour at 37° C.

T2 sequence (P41595 whole entry): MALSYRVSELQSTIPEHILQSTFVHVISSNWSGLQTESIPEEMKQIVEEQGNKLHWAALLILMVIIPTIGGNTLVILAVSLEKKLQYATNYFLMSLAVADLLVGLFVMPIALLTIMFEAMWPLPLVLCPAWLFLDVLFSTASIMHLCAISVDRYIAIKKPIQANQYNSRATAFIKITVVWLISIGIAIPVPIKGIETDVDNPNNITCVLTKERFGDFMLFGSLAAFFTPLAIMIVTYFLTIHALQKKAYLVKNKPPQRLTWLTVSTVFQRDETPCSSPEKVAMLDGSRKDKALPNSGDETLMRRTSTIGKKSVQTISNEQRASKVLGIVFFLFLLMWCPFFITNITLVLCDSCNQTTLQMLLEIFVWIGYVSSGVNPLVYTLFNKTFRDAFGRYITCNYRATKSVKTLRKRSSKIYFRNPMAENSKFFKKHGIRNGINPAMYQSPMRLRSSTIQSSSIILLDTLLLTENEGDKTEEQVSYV
T1 sequence (P28223 whole entry): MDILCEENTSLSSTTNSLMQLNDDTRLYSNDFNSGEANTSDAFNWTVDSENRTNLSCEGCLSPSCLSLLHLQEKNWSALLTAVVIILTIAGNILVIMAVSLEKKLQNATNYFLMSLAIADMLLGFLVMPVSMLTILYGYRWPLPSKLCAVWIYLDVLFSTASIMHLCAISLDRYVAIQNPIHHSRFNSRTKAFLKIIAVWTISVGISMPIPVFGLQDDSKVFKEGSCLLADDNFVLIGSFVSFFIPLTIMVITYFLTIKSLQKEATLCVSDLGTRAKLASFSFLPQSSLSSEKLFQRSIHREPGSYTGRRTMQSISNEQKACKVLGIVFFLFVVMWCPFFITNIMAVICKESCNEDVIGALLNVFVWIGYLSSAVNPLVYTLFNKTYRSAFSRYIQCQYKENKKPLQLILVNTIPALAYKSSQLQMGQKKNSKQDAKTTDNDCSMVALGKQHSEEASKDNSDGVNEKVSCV

In the case of `CN1CC(c2csc3ccccc23)C1.Cl`, the 50% effective concentration (EC50) is more than 1 µM at 5-HT2A [1], 0.1 to 1 µM on 5-HT2B (setting [5]) and 0.01 to 0.1 µM at 5-HT2C [4]. Further, the maximal effect (Emax) was less than 50% at 5-HT2A [1], less than 50% at 5-HT2B and more than 70% on 5-HT2C [4]. In addition, on 5-HT2C [2], the “Gq signaling bias?” value was “Yes”. Further, on 5-HT2A [3], the “Hall or N-Hall?” value is reported as “N-Hall”.
For `Fc1cnc2[nH]cc(C3=CCNC3)c2c1`, the 50% effective concentration (EC50) on 5-HT2A [1] was 0.1 to 1 µM; at 5-HT2B (setting [5]), 0.1 to 1 µM; on 5-HT2C [4], 0.01 to 0.1 µM. In addition, the Emax on 5-HT2A [1], on 5-HT2B and on 5-HT2C [4] was more than 70% in each case. Moreover, the “Gq signaling bias?” value at 5-HT2C [2] was “No”. The “Hall or N-Hall?” value at 5-HT2A [3] is “Hall”.
Turning to `Cl.c1ccc2c(C3CCNC3)csc2c1` (stereo not shown), the EC50 lay in the range of 0.1 to 1 µM at 5-HT2A [1] and 0.01 to 0.1 µM at 5-HT2C [4]. Further, the values for the maximum response (Emax) on 5-HT2A [1], on 5-HT2B and at 5-HT2C [4] were 50 to 70%, less than 50% and more than 70%, respectively. The “Gq signaling bias?” value on 5-HT2C [2] is recorded as “Yes”. Also, on 5-HT2A [3], the “Hall or N-Hall?” value is listed as “N-Hall”.
Turning to `C1=C(c2c[nH]c3ncccc23)CNC1`, the Emax at 5-HT2A [1], at 5-HT2B and at 5-HT2C [4] was less than 50% each time. For the same molecule, on 5-HT2C [2], the “Gq signaling bias?” value is on record as “No”. Moreover, the “Hall or N-Hall?” value at 5-HT2A [3] was “N-Hall”.
As to `C1=C(c2csc3ccccc23)CNC1`, the concentration for a half-maximal effect (EC50) on 5-HT2A [1] is 0.01 to 0.1 µM; at 5-HT2C [4] it was less than 0.01 µM. The results for the Emax on 5-HT2A [1], on 5-HT2B and at 5-HT2C [4] were more than 70%, less than 50% and more than 70%, respectively. Moreover, at 5-HT2C [2], the “Gq signaling bias?” value is “Yes”. In addition, the “Hall or N-Hall?” value at 5-HT2A [3] is “Hall”.
Turning to `CN1CC=C(c2csc3ccccc23)C1`, the concentration for a half-maximal effect (EC50) at 5-HT2A [1] is 0.01 to 0.1 µM; on 5-HT2B (setting [5]) it was more than 1 µM; at 5-HT2C [4], less than 0.01 µM. Besides, the Emax is 50 to 70% on 5-HT2A [1], less than 50% at 5-HT2B and more than 70% on 5-HT2C [4].
As to `CN1CC=C(c2csc3cc(F)ccc23)C1`, on 5-HT2A [1], the EC50 is 0.1 to 1 µM and the Emax is less than 50%. Further, the “5-HT2B EC50 (nM)” value at 5-HT2B (setting [5]) was “AT*”. Besides, at 5-HT2C [4], the 50% effective concentration (EC50) fell in the range of 0.01 to 0.1 µM and the Emax is 50 to 70%.

As usually defined, the EC50 is the concentration needed to bring the measured effect to its halfway point. For orientation: Emax means the maximal effect, on the per cent scale that the assay sets.
